These molecules were tested against T1, His-tagged human recombinant DDR-2 kinase domain (His-TEV-DDR2 467-855 aa) (Homo sapiens, UniProt Q16832) (assay: Autophosphorylation assay for biochemical activity testing of DDR2 (HTRF)). Details: biochemical DDR2 autophosphorylation.
T1 construct: His-TEV-DDR2 467-855 aa
T1 sequence (Q16832 467-855): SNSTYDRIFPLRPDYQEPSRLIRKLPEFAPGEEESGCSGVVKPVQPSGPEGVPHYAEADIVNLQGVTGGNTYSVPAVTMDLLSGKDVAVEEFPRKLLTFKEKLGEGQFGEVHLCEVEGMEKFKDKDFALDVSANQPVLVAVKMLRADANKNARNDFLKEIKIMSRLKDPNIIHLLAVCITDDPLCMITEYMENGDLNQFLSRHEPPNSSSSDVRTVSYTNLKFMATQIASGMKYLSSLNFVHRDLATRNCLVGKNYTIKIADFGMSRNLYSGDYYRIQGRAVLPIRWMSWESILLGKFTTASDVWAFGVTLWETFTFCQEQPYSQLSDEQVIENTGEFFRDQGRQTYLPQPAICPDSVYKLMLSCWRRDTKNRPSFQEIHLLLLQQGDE
Protocol: The autophosphorylation assay was run in two steps: the enzymatic reaction in which His-tagged DDR2 with ATP as co-substrate phosphorylates itself and the detection reaction where a time resolved FRET between XL665® labelled anti-6His antibody bound to the His-tag of the enzyme and cryptate labelled anti-phospho-Tyrosine-antibody (PT66) bound the phosphorylated Tyrosine residue of DDR2 was analysed. The autophosphorylation activity was detectable directly via the increase in HTRF signal.
The autophosphorylation assay was performed as 1536 well or 384 well HTRF® (Cisbio, Codolet, France) assay format in Greiner low volume medium binding 384-well microtiter plates and was used for high throughput screen. […] The ratio of the emission signals was determined. The full value used was the inhibitor-free reaction.

IC50 [µM]	SMILES
0.29	CNC(=O)c1cc(Oc2ccc(CNC(=O)Nc3cnc4ccccc4c3)cc2)ccn1 [compound 97, 4-{4-[(3-Quinolin-3-yl-ureido)-methyl]-phenoxy}-pyridine-2-carboxylic acid methylamide]
3.3	CNC(=O)c1cc(Oc2ccc(CNC(=O)Nc3cc(C(F)(F)F)c(Cl)cc3OCC(=O)O)cc2)ccn1 [compound 98, (5-Chloro-2-{3-[4-(2-methylcarbamoyl-pyridin-4-yloxy)-benzyl]-ureido}-4-trifluoromethyl-phenoxy)-acetic acid]
0.19	CNC(=O)c1cc(Oc2ccc(CNC(=O)Nc3cc4ccccc4nc3OC)cc2)ccn1 [compound 101, 4-{4-[3-(2-Methoxy-quinolin-3-yl)-ureidomethyl]-phenoxy}-pyridine-2-carboxylic acid methylamide]
0.05	CNC(=O)c1cc(Oc2ccc(CNC(=O)Nc3cc(C(F)(F)F)ccc3OC)cc2C)ccn1 [compound 102, 4-{4-[3-(2-Methoxy-5-trifluoromethyl-phenyl)-ureidomethyl]-2-methyl-phenoxy}-pyridine-2-carboxylic acid methylamide]
0.27	CNC(=O)c1cc(Oc2ccc(CNC(=O)Nc3cc(Cl)ccc3OC)c(C)c2)ccn1 [compound 104, 4-{4-[3-(5-Chloro-2-methoxy-phenyl)-ureidomethyl]-3-methyl-phenoxy}-pyridine-2-carboxylic acid methylamide]
0.18	CNC(=O)c1cc(Oc2ccc(CNC(=O)Nc3cc(C(F)(F)F)ccc3OC)c(C)c2)ccn1 [compound 105, 4-{4-[3-(2-Methoxy-5-trifluoromethyl-phenyl)-ureidomethyl]-3-methyl-phenoxy}-pyridine-2-carboxylic acid methylamide]
0.14	CNC(=O)c1cc(Oc2ccc(CNC(=O)Nc3cc(C(F)(F)F)ccc3OCCN3CCCC3)cc2)ccn1 [compound 106, 4-(4-{3-[2-(2-Pyrrolidin-1-yl-ethoxy)-5-trifluoromethyl-phenyl]-ureidomethyl}-phenoxy)-pyridine-2-carboxylic acid methylamide]
0.022	CNC(=O)c1cc(Oc2ccc(CNC(=O)Nc3cc(C(F)(F)F)c(Cl)cc3OCC(=O)OC(C)(C)C)cc2)ccn1 [compound 107, (5-Chloro-2-{3-[4-(2-methylcarbamoyl-pyridin-4-yloxy)-benzyl]-ureido}-4-trifluoromethyl-phenoxy)-acetic acid tert-butyl ester]
0.03	CCN(CC)CCOc1ccc(C(F)(F)F)cc1NC(=O)NCc1ccc(Oc2ccnc(C(=O)NC)c2)cc1 [compound 108, 4-(4-{3-[2-(2-Diethylamino-ethoxy)-5-trifluoromethyl-phenyl]-ureidomethyl}-phenoxy)-pyridine-2-carboxylic acid methylamide]
0.072	CNC(=O)c1cc(Oc2ccc(CNC(=O)Nc3cc(C(F)(F)F)ccc3OCCN3CCOCC3)cc2)ccn1 [compound 109, 4-(4-{3-[2-(2-Morpholin-4-yl-ethoxy)-5-trifluoromethyl-phenyl]-ureidomethyl}-phenoxy)-pyridine-2-carboxylic acid methylamide]
0.057	CNC(=O)c1cc(Oc2ccc(CNC(=O)Nc3cc(C(F)(F)F)c(Cl)cc3OCC(=O)OC)cc2)ccn1 [compound 113, (5-Chloro-2-{3-[4-(2-methylcarbamoyl-pyridin-4-yloxy)-benzyl]-ureido}-4-trifluoromethyl-phenoxy)-acetic acid methyl ester]
0.024	CNC(=O)c1cc(Oc2ccc(CNC(=O)Nc3cc(C(F)(F)F)c(Cl)cc3OCC(=O)OC(C)C)cc2)ccn1 [compound 114, (5-Chloro-2-{3-[4-(2-methylcarbamoyl-pyridin-4-yloxy)-benzyl]-ureido}-4-trifluoromethyl-phenoxy)-acetic acid isopropyl ester]
0.41	CNC(=O)c1cc(Oc2ccc(CNC(=O)Nc3cc(C)c(Cl)cc3OCCN3CCCC3)cc2)ccn1 [compound 116, 4-(4-{3-[4-Chloro-5-methyl-2-(2-pyrrolidin-1-yl-ethoxy)-phenyl]-ureidomethyl}-phenoxy)-pyridine-2-carboxylic acid methylamide]
0.425	CCN(CC)CCOc1cc(Cl)c(C)cc1NC(=O)NCc1ccc(Oc2ccnc(C(=O)NC)c2)cc1 [compound 117, 4-(4-{3-[4-Chloro-2-(2-diethylamino-ethoxy)-5-methyl-phenyl]-ureidomethyl}-phenoxy)-pyridine-2-carboxylic acid methylamide]
0.21	CNC(=O)c1cc(Oc2ccc(CNC(=O)Nc3cc(C)c(Cl)cc3OC)cc2C)ccn1 [compound 119, 4-{4-[3-(4-Chloro-2-methoxy-5-methyl-phenyl)-ureidomethyl]-2-methyl-phenoxy}-pyridine-2-carboxylic acid methylamide]
0.176	CNC(=O)c1cc(Oc2ccc(CNC(=O)Nc3cc(C)c(Cl)cc3OCCN3CCNCC3)cc2)ccn1 [compound 120, 4-(4-{3-[4-Chloro-5-methyl-2-(2-piperazin-1-yl-ethoxy)-phenyl]-ureidomethyl}-phenoxy)-pyridine-2-carboxylic acid methylamide]
0.034	CNC(=O)c1cc(Oc2ccc(CNC(=O)Nc3cc(C(F)(F)F)ccc3OCCN)cc2)ccn1 [compound 121, 4-(4-{3-[2-(2-Amino-ethoxy)-5-trifluoromethyl-phenyl]-ureidomethyl}-phenoxy)-pyridine-2-carboxylic acid methylamide]
3.1	COc1cc(Cl)c(C)cc1NC(=O)NCc1ccc(Oc2ccnc(C(=O)NCCN)c2)cc1 [compound 123, 4-{4-[3-(4-Chloro-2-methoxy-5-methyl-phenyl)-ureidomethyl]-phenoxy}-pyridine-2-carboxylic acid (2-amino-ethyl)-amide]
0.15	COc1cc(Cl)c(C)cc1NC(=O)NCc1ccc(Oc2ccnc(C(=O)NCCCCCCN)c2)cc1 [compound 126, 4-{4-[3-(4-Chloro-2-methoxy-5-methyl-phenyl)-ureidomethyl]-phenoxy}-pyridine-2-carboxylic acid (6-amino-hexyl)-amide]
0.25	CNC(=O)c1cc(Oc2ccc(CNC(=O)Nc3cc(C(F)(F)F)c(Cl)cc3OCCN3CCCC3)cc2)ccn1 [compound 129, 4-(4-{3-[4-Chloro-2-(2-pyrrolidin-1-yl-ethoxy)-5-trifluoromethyl-phenyl]-ureidomethyl}-phenoxy)-pyridine-2-carboxylic acid methylamide]
0.096	CNC(=O)c1cc(Oc2ccc(CNC(=O)Nc3cc(C(F)(F)F)c(Cl)cc3OCCN3CCOCC3)cc2)ccn1 [compound 131, 4-(4-{3-[4-Chloro-2-(2-morpholin-4-yl-ethoxy)-5-trifluoromethyl-phenyl]-ureidomethyl}-phenoxy)-pyridine-2-carboxylic acid methylamide]
0.125	CCN(CC)CCOc1cc(Cl)c(C(F)(F)F)cc1NC(=O)NCc1ccc(Oc2ccnc(C(=O)NC)c2)cc1 [compound 132, 4-(4-{3-[4-Chloro-2-(2-diethylamino-ethoxy)-5-trifluoromethyl-phenyl]-ureidomethyl}-phenoxy)-pyridine-2-carboxylic acid methylamide]
2	CNC(=O)c1cc(Oc2ccc(CNC(=O)Nc3cc(C)c(Cl)cc3OCCN3CCOCC3)c(C)c2)ccn1 [compound 133, 4-(4-{3-[4-Chloro-5-methyl-2-(2-morpholin-4-yl-ethoxy)-phenyl]-ureidomethyl}-3-methyl-phenoxy)-pyridine-2-carboxylic acid methylamide]
1.2	CNC(=O)c1cc(Oc2ccc(CNC(=O)Nc3cc(C)c(Cl)cc3OCCN3CCCC3)c(C)c2)ccn1 [compound 134, 4-(4-{3-[4-Chloro-5-methyl-2-(2-pyrrolidin-1-yl-ethoxy)-phenyl]-ureidomethyl}-3-methyl-phenoxy)-pyridine-2-carboxylic acid methylamide]
0.39	CCN(CC)CCOc1cc(Cl)c(C)cc1NC(=O)NCc1ccc(Oc2ccnc(C(=O)NC)c2)c(C)c1 [compound 136, 4-(4-{3-[4-Chloro-2-(2-diethylamino-ethoxy)-5-methyl-phenyl]-ureidomethyl}-2-methyl-phenoxy)-pyridine-2-carboxylic acid methylamide]
0.14	CNC(=O)c1cc(Oc2ccc(CNC(=O)Nc3cc(C)c(Cl)cc3OCCN3CCCC3)cc2C)ccn1 [compound 137, 4-(4-{3-[4-Chloro-5-methyl-2-(2-pyrrolidin-1-yl-ethoxy)-phenyl]-ureidomethyl}-2-methyl-phenoxy)-pyridine-2-carboxylic acid methylamide]
0.31	CNC(=O)c1cc(Oc2ccc(CNC(=O)Nc3cc(C)c(Cl)cc3OCCN3CCOCC3)cc2C)ccn1 [compound 138, 4-(4-{3-[4-Chloro-5-methyl-2-(2-morpholin-4-yl-ethoxy)-phenyl]-ureidomethyl}-2-methyl-phenoxy)-pyridine-2-carboxylic acid methylamide]

SMILES	IC50 [µM]
CNC(=O)c1cc(Oc2ccc(CNC(=O)Nc3cc(C(F)(F)F)ccc3OC3CCNCC3)cc2)ccn1 [compound 115, 4-(4-{3-[2-(Piperidin-4-yloxy)-5-trifluoromethyl-phenyl]-ureidomethyl}-phenoxy)-pyridine-2-carboxylic acid methylamide]	0.02
